{"source": "patent US20240350591A1", "about": "“COMPOSITION AND METHODS OF TREATMENT USING […]-ENHANCED SUPPLEMENTATION” (Xygenyx Inc., priority 2023, published 2024)", "origin": "cited, not measured here", "key": {"skin [1]": {"test_system": "skin", "settings": "topical, concentrations 0.5-5%"}, "F2-isoprostane": {"test_system": "F2-isoprostane", "settings": "large doses of 1600-3200 IU/day"}, "[2]": {"settings": "compared to α-tocopherol = 1.0"}, "[3]": {"settings": "transdermal route"}, "[4]": {"settings": "patients who did not respond to traditional antidepressant medications"}, "[5]": {"settings": "dietary intake in equal portions"}, "[6]": {"test": "not given", "remark": "listed apart in the source"}, "skin [7]": {"test_system": "skin", "settings": "topical formulations, within four weeks of treatment"}, "[8]": {"settings": "in vivo"}, "[9]": {"test_system": "wide dynamic range neurons in the ventroposterolateral nucleus of the thalamus", "settings": "in vivo"}, "markers of inflammation": {"test_system": "markers of inflammation", "settings": "individuals with metabolic syndrome"}}, "note": "Non-standard residues stand in square brackets, D forms with d. Residues, ends and D or L forms follow the SMILES beside them. ξ: configuration not given here. Cit = NC(=O)NCCC[C@H](N)C(=O)O; Ile(3ξ) = CCC(C)[C@H](N)C(=O)O"}
{"compound": "C=CCCCCCCCCC(=O)N[C@@H](Cc1ccccc1)C(=O)O", "note": "[UP, Undecylenoyl phenylalanine]", "values": [{"measurement": "time of treatment to skin lightening effects", "setting": "skin [1]", "result": "≥ 7", "unit": "days"}]}
{"compound": "Cc1c(C)c2c(c(C)c1O)CC[C@@](C)(CCC[C@H](C)CCC[C@H](C)CCCC(C)C)O2", "note": "[α-tocopherol]", "values": [{"measurement": "reduction of risk of coronary disease", "setting": "dietary supplementation, doses up to 400 IU/day", "result": "up to 34%"}, {"measurement": "reduction of risk of developing neurodegenerative diseases (Alzheimer's Syndrome or dementia)", "setting": "dietary supplementation, doses up to 400 IU/day, controlled trials", "result": "≤ 24", "unit": "%"}, {"measurement": "reduction in the development of age-related cataracts", "setting": "in combination with 10-20 mg β-carotene and 400-500 mg vitamin C, doses around 400-500 IU", "result": 23, "unit": "%"}, {"measurement": "blood plasma concentration of F2-isoprostane", "setting": "F2-isoprostane", "result": "significantly lower"}, {"measurement": "relative biological activity", "setting": "[2]", "result": 1.0}]}
{"compound": "Cc1cc(O)c(C)c2c1O[C@](C)(CCC[C@H](C)CCC[C@H](C)CCCC(C)C)CC2", "note": "[β-tocopherol]", "values": [{"measurement": "relative biological activity", "setting": "[2]", "result": 0.5}]}
{"compound": "CC(C)[C@@H]1CC[C@@H](C)C[C@H]1O", "note": "[Menthol]", "values": [{"measurement": "factor of increase of drug uptake", "setting": "[3]", "result": "≥ 10"}]}
{"compound": "CC12CCC(CC1)C(C)(C)O2", "note": "[eucalyptol, 1,8-epoxy-p-menthane]", "values": [{"measurement": "factor of increase of drug uptake", "setting": "[3]", "result": "more than 10"}]}
{"compound": "CN1c2c([nH]c(N)nc2=O)NCC1CNc1ccc(C(=O)N[C@@H](CCC(=O)O)C(=O)O)cc1", "note": "(some centres unmarked) [5-MTHF, 5-methyltetrahydrofolate]", "values": [{"measurement": "symptoms of depression", "setting": "[4]", "result": "improved"}]}
{"compound": "Cc1c(O)cc2c(c1C)O[C@](C)(CCC[C@H](C)CCC[C@H](C)CCCC(C)C)CC2", "note": "[γ-tocopherol]", "values": [{"measurement": "relative biological activity", "setting": "[2]", "result": 0.1}, {"measurement": "concentration in vivo relative to α-tocopherol", "setting": "[5]", "result": "roughly 10%"}]}
{"compound": "C=C1CC/C=C(\\C)CC[C@@H]2[C@@H]1CC2(C)C", "note": "[β-caryophyllene]", "values": [{"measurement": "increases of protein carbonyl groups and myeloperoxidase activity in the liver and plasma", "setting": "[6]; arthritic subjects", "result": "eliminated"}, {"measurement": "number of circulating and articular leukocytes", "setting": "[6]; rheumatoid arthritis", "result": "reduced"}, {"measurement": "swelling of joints and lymph nodes", "setting": "[6]; rheumatoid arthritis", "result": "reduced"}]}
{"compound": "CCC(C)[C@H](NC(=O)[C@H](CC(=O)O)NC(=O)[C@@H](N)CCCCN)C(=O)N[C@@H](CCCNC(N)=O)C(N)=O", "note": "(some centres unmarked) [tripeptide-10 citrulline, Tripeptide-10 citrulline] (H-KD[Ile(3ξ)][Cit]-NH2)", "values": [{"measurement": "improvement of suppleness", "setting": "skin [7]", "result": "≤ 54", "unit": "%"}]}
{"compound": "HGH: hormone comprising a peptide chain that is synthesized in the pituitary gland", "values": [{"measurement": "biological half-life", "setting": "[8]", "result": "10-20 minutes"}]}
{"compound": "CCCCCc1cc(O)c2c(c1)OC(C)(C)C1CCC(C)=CC21", "note": "(centres unmarked) [THC, Δ-9-tetrahydrocannabinol]", "values": [{"measurement": "power in mediating pain relative to morphine", "setting": "[9]", "result": "ten times"}]}
{"compound": "Cc1cc(O)cc2c1O[C@](C)(CCC[C@H](C)CCC[C@H](C)CCCC(C)C)CC2", "note": "[δ-tocopherol]", "values": [{"measurement": "relative biological activity", "setting": "[2]", "result": 0.03}, {"measurement": "markers of inflammation in the blood", "setting": "markers of inflammation", "result": "reduced"}]}
